Results: patent US11807640B1 (priority 2023, dated 2023)
In brackets after ≈: the same amount, converted by molar mass.

Tested on: Mycobacterium tuberculosis (MTB) H37Rv
Assay: Resazurin Microplate Assay (REMA), anti-tubercular screening, H37Rv
Type: cell-based
Conditions: 192 h, Middlebrook 7H9 broth, 37° C., 8 days incubation then resazurin overnight, read-out: MIC (μg/mL) H37Rv

SMILES	MIC
CCOC(=O)c1cc(C(=O)c2ccc(F)cc2)n2ccc(C(=O)OC(C)C)cc12 [KNV-4, 1-Ethyl 7-isopropyl 3-(4-fluorobenzoyl)indolizine-1,7-dicarboxylate]	1 µg/mL (≈ 2.52 µM)
COC(=O)c1c(C(=O)OC)c2cc(C(=O)OC(C)C)ccn2c1C(=O)c1ccc(Br)cc1 [KNV-7, 7-Isopropyl 1,2-dimethyl 3-(4-bromobenzoyl)indolizine-1,2,7-tricarboxylate]	1 µg/mL (≈ 1.99 µM)
